Assay results published in PubChem BioAssay AID256 (DTP/NCI, 2004).
Inconclusive results and toxic doses are left out. How the source made its calls: active means survival T/C of 150% or more; inactive means T/C below 125% in these data.

System: CD2F1 mice, L1210 leukemia ip, survival T/C
Assay: NCI In Vivo Anticancer Drug Screen. Data for tumor model L1210 Leukemia (intraperitoneal) in CD2F1 (CDF1) mice
Settings: higher = longer survival
Method in brief: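 Implant tumor; dose compound or vehicle; measure endpoint in both groups; report treated divided by control.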

[1] = endpoint: mean survival time, dose: 100.0 mg/kg/injection, schedule: Q04DX003 (ip), vehicle: other
[2] = endpoint: mean survival time, dose: 200.0 mg/kg/injection, schedule: Q04DX003 (ip), vehicle: other
[3] = endpoint: mean survival time, dose: 400.0 mg/kg/injection, schedule: Q04DX003 (ip), vehicle: other
[4] = endpoint: mean survival time, dose: 100.0 mg/kg/injection, schedule: Q04DX002 (ip), vehicle: saline with Tween-80
[5] = endpoint: mean survival time, dose: 200.0 mg/kg/injection, schedule: Q04DX002 (ip), vehicle: saline with Tween-80
[6] = endpoint: mean survival time, dose: 100.0 mg/kg/injection, schedule: Q04DX003 (ip), vehicle: saline with Tween-80
[7] = endpoint: mean survival time, dose: 100.0 mg/kg/injection, schedule: Q01DX009 (ip), vehicle: saline with Tween-80
[8] = endpoint: mean survival time, dose: 50.0 mg/kg/injection, schedule: Q04DX002 (ip), vehicle: saline with Tween-80

Measured: T/C

CCOC(C)C(O)(c1ccc(N(C)C)cc1)c1ccc(N(C)C)cc1 (stereo not drawn)
inactive: [1] 95 % of control | [2] 91 % of control | [3] 97 % of control

Cc1cc(N=Nc2ccc(S(=O)(=O)[O-])cc2)cc(C(=O)[O-])c1[OH2+].Cc1cc(N=Nc2ccc(S(=O)(=O)[O-])cc2)cc(C(=O)[O-])c1[OH2+].NC1CCCCC1N.[Na+].[Pt+4]
inactive: endpoint: median survival time, dose: 50.0 mg/kg/injection, schedule: Q04DX003 (ip), vehicle: saline with Tween-80 106 % of control
active: endpoint: median survival time, dose: 6.25 mg/kg/injection, schedule: Q04DX003 (ip), vehicle: saline with Tween-80 172 % of control | endpoint: median survival time, dose: 6.25 mg/kg/injection, schedule: Q04DX003 (ip), vehicle: saline 172 % of control | endpoint: median survival time, dose: 12.5 mg/kg/injection, schedule: Q04DX003 (ip), vehicle: saline with Tween-80 344 % of control | endpoint: median survival time, dose: 12.5 mg/kg/injection, schedule: Q04DX003 (ip), vehicle: saline 253 % of control | endpoint: median survival time, dose: 25.0 mg/kg/injection, schedule: Q04DX003 (ip), vehicle: saline with Tween-80 313 % of control | endpoint: median survival time, dose: 25.0 mg/kg/injection, schedule: Q04DX003 (ip), vehicle: saline 289 % of control

O=S(=O)(CCCl)c1ccc(Cl)cc1
inactive: [4] 96 % of control | [5] 101 % of control

CCOC(=O)c1ccc(NC(=O)c2ccc(OCCOc3ccc(C(C)(C)CC(C)(C)C)cc3)c(NC(=O)CC(=O)c3cccc([N+](=O)[O-])c3)c2)cc1
inactive: endpoint: mean survival time, dose: 100.0 mg/kg/injection, schedule: Q01DX009 (ip), vehicle: Klucel (hydroxypropylcellulose) (HPC) 92 % of control | endpoint: mean survival time, dose: 100.0 mg/kg/injection, schedule: Q04DX003 (ip), vehicle: Klucel (hydroxypropylcellulose) (HPC) 111 % of control | endpoint: mean survival time, dose: 200.0 mg/kg/injection, schedule: Q01DX009 (ip), vehicle: Klucel (hydroxypropylcellulose) (HPC) 92 % of control | endpoint: mean survival time, dose: 200.0 mg/kg/injection, schedule: Q04DX003 (ip), vehicle: Klucel (hydroxypropylcellulose) (HPC) 100 % of control | endpoint: mean survival time, dose: 400.0 mg/kg/injection, schedule: Q01DX009 (ip), vehicle: Klucel (hydroxypropylcellulose) (HPC) 103 % of control | endpoint: mean survival time, dose: 400.0 mg/kg/injection, schedule: Q04DX003 (ip), vehicle: Klucel (hydroxypropylcellulose) (HPC) 102 % of control

Cc1cc(NCCN(C(C)C)C(C)C)nc(Nc2nc3cc(Cl)c(Cl)cc3[nH]2)n1
inactive: endpoint: mean survival time, dose: 6.25 mg/kg/injection, schedule: Q01DX009 (ip), vehicle: saline with Tween-80 100 % of control | endpoint: mean survival time, dose: 12.5 mg/kg/injection, schedule: Q01DX009 (ip), vehicle: saline with Tween-80 105 % of control | endpoint: mean survival time, dose: 25.0 mg/kg/injection, schedule: Q01DX009 (ip), vehicle: saline with Tween-80 92 % of control | [6] 87 % of control

CCCOS(=O)(=O)c1ccc(Cl)c([N+](=O)[O-])c1
inactive: endpoint: mean survival time, dose: 50.0 mg/kg/injection, schedule: Q01DX009 (ip), vehicle: saline with Tween-80 97 % of control | [7] 90 % of control | [6] 94 % of control | endpoint: mean survival time, dose: 200.0 mg/kg/injection, schedule: Q04DX003 (ip), vehicle: saline with Tween-80 89 % of control

Cc1ccc(P(=O)(O)O)c([N+](=O)[O-])c1
inactive: endpoint: mean survival time, dose: 50.0 mg/kg/injection, schedule: Q04DX003 (ip), vehicle: saline 105 % of control | endpoint: mean survival time, dose: 100.0 mg/kg/injection, schedule: Q04DX003 (ip), vehicle: saline 95 % of control | endpoint: mean survival time, dose: 200.0 mg/kg/injection, schedule: Q04DX003 (ip), vehicle: saline 105 % of control

CC(C)CCC(=O)c1ccccc1
inactive: [8] 87 % of control | [4] 97 % of control | [5] 91 % of control

CC1OC(OC2C(O)C(CO)OC(OC3C(C(=O)O)OC(OC4CCC5(C)C(CCC6(C)C5CC=C5C7CC(C)(C)C(O)C(O)C7(CO)C(O)CC56C)C4(C)C)C(OC4OC(CO)C(O)C(O)C4O)C3O)C2O)C(O)C(O)C1O (stereo not drawn)
inactive: [8] 98 % of control | [4] 102 % of control | [5] 107 % of control

O=C(O)c1c[nH]c2c(Cl)cccc2c1=O
inactive: endpoint: mean survival time, dose: 100.0 mg/kg/injection, schedule: Q01DX001 (ip), vehicle: saline 102 % of control | endpoint: mean survival time, dose: 200.0 mg/kg/injection, schedule: Q01DX001 (ip), vehicle: saline 100 % of control

COC(=O)C1(C)CCCC2(C)C3CCC(C)(CCOC(C)=O)CC3C(OC(C)=O)CC12 (stereo not drawn)
inactive: endpoint: mean survival time, dose: 100.0 mg/kg/injection, schedule: Q01DX001 (ip), vehicle: saline with Tween-80 90 % of control

COc1ccc2c(OC)cccc2c1
inactive: [1] 102 % of control | [2] 112 % of control | [3] 101 % of control

Cc1ccc([Si](C)Cl)cc1
inactive: [7] 96 % of control | endpoint: mean survival time, dose: 200.0 mg/kg/injection, schedule: Q01DX009 (ip), vehicle: saline with Tween-80 93 % of control
